Key:
corn = test: Test Example 2: safety to corn (phytotoxicity); type: in vivo; conditions: dosage 40 g/ha; sprayed on 13-day corn; examined 5 days after application
Procedure: (§1) Plastic pots each having an area of 26.5×19 cm^2 and a depth of 7 cm were filled with upland soil, and then seeded with soybean, corn and giant foxtail. The corn was grown for 13 days, and the soybean and giant foxtail were grown for 22 days in a greenhouse. An emulsifiable concentrate compound A which had been obtained by well mixing 10 parts of compound A, 14 parts of polyoxyethylene styryl phenyl ether, 6 parts of calcium dodecylbenzenesulfonate, 35 parts of xylene, and 35 parts of cyclohexanone, an emulsifiable concentrate of flufenacet which had been obtained by well mixing 10 parts of flufenacet, 14 parts of polyoxyethylene styryl phenyl ether, 6 parts of calcium dodecylbenzenesulfonate, 35 parts of xylene, and 35 parts of cyclohexanone, and a mixture of the emulsifiable concentrate of compound A and the emulsifiable concentrate of flufenacet were independently diluted in their prescribed amounts with water. Each dilution was uniformly sprayed over the plants with a small sprayer. After the application, the plants were grown in the greenhouse for 5 days, and the herbicidal activity and safety to soybean and corn were then examined.

soybean = test: Test Example 2: safety to soybean (phytotoxicity); type: in vivo; conditions: dosage 40 g/ha; sprayed on 22-day soybean; examined 5 days after application
Procedure: as §1

giant foxtail [1] = test: Test Example 2: post-emergence foliar spray, herbicidal activity; type: in vivo, giant foxtail (Setaria faberi); conditions: sprayed on 22-day plants, examined 5 days after application, index 0 to 10
Procedure: as §1

wheat = test: Test Example 1: safety to wheat (phytotoxicity); type: in vivo, wheat (Triticum aestivum); conditions: dosage 10 g/ha; sprayed on 14-day wheat; examined 5 days after application
Procedure: (§2) Plastic pots each having an area of 26.5×19cm^2 and a depth of 10 cm were filled with upland soil, and then seeded with wheat and giant foxtail. The wheat was grown for 14 days and t he giant foxtail was grown for 23 days in a greenhouse. An emulsifiable concentrate compound A which had been obtained by well mixing 10 parts of compound A, 14 parts of polyoxyethylene styryl phenyl ether, 6 parts of calcium dodecylbenzenesulfonate, 35 parts of xylene, and 35 parts of cyclohexanone, an emulsifiable concentrate of flufenacet which had been obtained by well mixing 10 parts of flufenacet, 14 parts of polyoxyethylene styryl phenyl ether, 6 parts of calcium dodecylbenzenesulfonate, 35 parts of xylene, and 35 parts of cyclohexanone, and a mixture of the emulsifiable concentrate of compound A and the emulsifiable concentrate of flufenacet were independently diluted in their prescribed amounts with water. Each dilution was uniformly sprayed over the plants with a small sprayer. After the application, the plants were grown in the greenhouse for 5 days, and the herbicidal activity and safety to wheat were then examined.

giant foxtail [2] = test: Test Example 1: post-emergence foliar spray, herbicidal activity; type: in vivo, giant foxtail (Setaria faberi); conditions: sprayed on 23-day plants, examined 5 days after application, index 0 to 10
Procedure: as §2

Structure (SMILES)	Phytotoxicity Corn (corn)	Phytotoxicity Soybean (soybean)	Herbicidal activity Giant foxtail (giant foxtail [1]; dosage 40 g/ha)	Phytotoxicity Wheat (wheat)	Herbicidal activity Giant foxtail (giant foxtail [2]; dosage 10 g/ha)	Herbicidal activity Giant foxtail (giant foxtail [1]; dosage 400 g/ha)	Herbicidal activity Giant foxtail (giant foxtail [2]; dosage 240 g/ha)
CCOC(=O)COc1cc(-n2ncc(C(F)(F)F)c(C)c2=O)c(F)cc1Cl [Compound A]	No harm	No harm	4	No harm	3		
CC(C)N(C(=O)COc1nnc(C(F)(F)F)s1)c1ccc(F)cc1 [Flufenacet, 4-fluoro-N-isopropyl-2-(5-trifluoromethyl-,1,3,4-thiadiazol-2-yloxy)acetanilide, reference compound]						2	2
